US20120189547A1 (priority 2009, published 2012)

Key:
[1] = In vivo biodistribution in naive male Sprague-Dawley rats; settings: rat; for Time at which regional differentiation remained apparent / Pituitary gland / Thalamus: male, Sprague-Dawley; for Time at which regional differentiation remained apparent / Pituitary gland / Thalamus / Clearance from whole brain after peak uptake: in vivo; for Whole brain uptake, peak: at the time of peak; for Regional differentiation between GABA-rich and GABA-poor regions of the brain: in vivo biodistribution; for Cerebellum / Hippocampus / Pons/Medulla / Pre-frontal cortex / Striatum: lateral tail vein, mean (SD), n = 3; for Pre-frontal cortex: thalmus: ratio
Experimental: Adult male Sprague-Dawley rats (body weight 202±37 g; mean±SD) were injected with between 1 and 5 MBq of [^18F]-Compound 1 via a lateral tail vein. All animals were conscious, but lightly restrained during injection and subsequently housed in short-term metabolism cages. At the appropriate time point; 30 seconds, 2, 10, 30 and 60 minutes post-injection (pi) (n=3 per time point), the animals were sacrificed by cervical dislocation. The brain and peripheral tissues or fluids were sampled post-mortem. Radioactivity in the brain samples was measured using a Wallac gamma counter. Once assayed, the brain samples, along with the remaining organ or tissue samples were assayed using a twin-crystal gamma-counter system (BASIL), with automatic correction for radioactive decay.
The biodistribution protocol described in Example 6 for Compound 1 was used to assess Compound 2.

GABAA receptor = settings: cited from earlier work
[2] = cited from earlier work

SMILES: CN1Cc2c(C(=O)OC(C)(C)C)ncn2-c2ccc(OCC[18F])cc2C1=O [[18F]-Compound 2]
- Time at which regional differentiation remained apparent [1]: 10 minutes pi
- Pituitary gland ([1]; 0.5 min): 0.82 (0.21) % id/g
- Thalamus ([1]; 0.5 min): 0.67 (0.12) % id/g
- Pituitary gland ([1]; 2 min): 1.07 (0.19) % id/g
- Thalamus ([1]; 2 min): 0.78 (0.20) % id/g
- Pituitary gland ([1]; 10 min): 0.69 (0.11) % id/g
- Thalamus ([1]; 10 min): 0.69 (0.12) % id/g
- Pituitary gland ([1]; 30 min): 0.64 (0.04) % id/g
- Thalamus ([1]; 30 min): 0.62 (0.12) % id/g
- Pituitary gland ([1]; 60 min): 0.51 (0.04) % id/g
- Thalamus ([1]; 60 min): 0.49 (0.02) % id/g
- Time of peak whole brain uptake [1]: 2 minutes pi
- Whole brain uptake, peak [1]: 0.82%
- Clearance from whole brain after peak uptake [1]: slow with a decreasing rate
- Regional differentiation between GABA-rich and GABA-poor regions of the brain [1]: good
- Cerebellum ([1]; 0.5 min post-injection): 0.75 (0.10) % id/g
- Hippocampus ([1]; 0.5 min post-injection): 0.63 (0.08) % id/g
- Pons/Medulla ([1]; 0.5 min post-injection): 0.58 (0.09) % id/g
- Pre-frontal cortex ([1]; 0.5 min post-injection): 0.80 (0.05) % id/g
- Striatum ([1]; 0.5 min post-injection): 0.63 (0.05) % id/g
- Cerebellum ([1]; 2 min post-injection): 0.82 (0.19) % id/g
- Hippocampus ([1]; 2 min post-injection): 0.89 (0.20) % id/g
- Pons/Medulla ([1]; 2 min post-injection): 0.61 (0.14) % id/g
- Pre-frontal cortex ([1]; 2 min post-injection): 1.07 (0.29) % id/g
- Striatum ([1]; 2 min post-injection): 0.71 (0.16) % id/g
- Cerebellum ([1]; 10 min post-injection): 0.74 (0.08) % id/g
- Hippocampus ([1]; 10 min post-injection): 0.94 (0.06) % id/g
- Pons/Medulla ([1]; 10 min post-injection): 0.56 (0.09) % id/g
- Pre-frontal cortex ([1]; 10 min post-injection): 1.04 (0.15) % id/g
- Striatum ([1]; 10 min post-injection): 0.61 (0.10) % id/g
- Cerebellum ([1]; 30 min post-injection): 0.59 (0.06) % id/g
- Hippocampus ([1]; 30 min post-injection): 0.75 (0.03) % id/g
- Pons/Medulla ([1]; 30 min post-injection): 0.52 (0.05) % id/g
- Pre-frontal cortex ([1]; 30 min post-injection): 0.75 (0.06) % id/g
- Striatum ([1]; 30 min post-injection): 0.55 (0.096) % id/g
- Cerebellum ([1]; 60 min post-injection): 0.47 (0.02) % id/g
- Hippocampus ([1]; 60 min post-injection): 0.53 (0.01) % id/g
- Pons/Medulla ([1]; 60 min post-injection): 0.45 (0.02) % id/g
- Pre-frontal cortex ([1]; 60 min post-injection): 0.51 (0.03) % id/g
- Striatum ([1]; 60 min post-injection): 0.45 (0.02) % id/g
- Pre-frontal cortex: thalmus ([1]; 0.5 min post-injection): 1.22
- Pre-frontal cortex: thalmus ([1]; 2 min post-injection): 1.36
- Pre-frontal cortex: thalmus ([1]; 10 min post-injection): 1.51
- Pre-frontal cortex: thalmus ([1]; 30 min post-injection): 1.23
- Pre-frontal cortex: thalmus ([1]; 60 min post-injection): 1.05

SMILES: CCOC(=O)c1ncn2c1CN(C)C(=O)c1cc([18F])ccc1-2 [[18F]FMZ, [18F]flumazenil]
- Ki (GABAA receptor; prior art statement): ~0.5 nM

SMILES: CCOC(=O)c1ncn2c1CN(C)C(=O)c1cc(OCC[18F])ccc1-2 [[18F]-Compound 1]
- Time at which regional differentiation remained apparent [1]: 30 minutes pi
- Pituitary gland ([1]; 0.5 min): 0.60 (0.1) % id/g
- Thalamus ([1]; 0.5 min): 0.30 (0.11) % id/g
- Pituitary gland ([1]; 2 min): 0.69 (0.13) % id/g
- Thalamus ([1]; 2 min): 0.47 (0.07) % id/g
- Pituitary gland ([1]; 10 min): 0.55 (0.10) % id/g
- Thalamus ([1]; 10 min): 0.39 (0.05) % id/g
- Pituitary gland ([1]; 30 min): 0.30 (0.02) % id/g
- Thalamus ([1]; 30 min): 0.24 (0.05) % id/g
- Pituitary gland ([1]; 60 min): 0.26 (0.08) % id/g
- Thalamus ([1]; 60 min): 0.20 (0.07) % id/g
- Time of peak whole brain uptake [1]: 10 minutes pi
- Whole brain uptake, peak [1]: 0.9%
- Clearance from whole brain after peak uptake [1]: slow with a decreasing rate
- Regional differentiation between GABA-rich and GABA-poor regions of the brain [1]: good
- Cerebellum ([1]; 0.5 min post-injection): 0.28 (0.06) % id/g
- Hippocampus ([1]; 0.5 min post-injection): 0.26 (0.08) % id/g
- Pons/Medulla ([1]; 0.5 min post-injection): 0.23 (0.04) % id/g
- Pre-frontal cortex ([1]; 0.5 min post-injection): 0.33 (0.1) % id/g
- Striatum ([1]; 0.5 min post-injection): 0.26 (0.07) % id/g
- Cerebellum ([1]; 2 min post-injection): 0.43 (0.03) % id/g
- Hippocampus ([1]; 2 min post-injection): 0.43 (0.06) % id/g
- Pons/Medulla ([1]; 2 min post-injection): 0.34 (0.02) % id/g
- Pre-frontal cortex ([1]; 2 min post-injection): 0.57 (0.02) % id/g
- Striatum ([1]; 2 min post-injection): 0.41 (0.04) % id/g
- Cerebellum ([1]; 10 min post-injection): 0.36 (0.05) % id/g
- Hippocampus ([1]; 10 min post-injection): 0.43 (0.07) % id/g
- Pons/Medulla ([1]; 10 min post-injection): 0.28 (0.05) % id/g
- Pre-frontal cortex ([1]; 10 min post-injection): 0.53 (0.09) % id/g
- Striatum ([1]; 10 min post-injection): 0.36 (0.04) % id/g
- Cerebellum ([1]; 30 min post-injection): 0.23 (0.04) % id/g
- Hippocampus ([1]; 30 min post-injection): 0.32 (0.05) % id/g
- Pons/Medulla ([1]; 30 min post-injection): 0.18 (0.04) % id/g
- Pre-frontal cortex ([1]; 30 min post-injection): 0.35 (0.07) % id/g
- Striatum ([1]; 30 min post-injection): 0.21 (0.04) % id/g
- Cerebellum ([1]; 60 min post-injection): 0.20 (0.05) % id/g
- Hippocampus ([1]; 60 min post-injection): 0.26 (0.07) % id/g
- Pons/Medulla ([1]; 60 min post-injection): 0.19 (0.05) % id/g
- Pre-frontal cortex ([1]; 60 min post-injection): 0.24 (0.06) % id/g
- Striatum ([1]; 60 min post-injection): 0.18 (0.04) % id/g
- Pre-frontal cortex: thalmus ([1]; 0.5 min post-injection): 1.13
- Pre-frontal cortex: thalmus ([1]; 2 min post-injection): 1.23
- Pre-frontal cortex: thalmus ([1]; 10 min post-injection): 1.35
- Pre-frontal cortex: thalmus ([1]; 30 min post-injection): 1.44
- Pre-frontal cortex: thalmus ([1]; 60 min post-injection): 1.21

SMILES: CN1Cc2c(C(=O)OCC[18F])ncn2-c2ccc(F)cc2C1=O [[18F]FFMZ, [18F]fluoroflumazenil]
- Selective binding to GABAA receptors (GABAA receptor; reported in prior art): high selective binding
- Brain uptake ([2]; reported in prior art): high

SMILES: CCOC(=O)c1ncn2c1CN(CC[18F])C(=O)c1cc(F)ccc1-2 [[18F]FEFMZ, [18F]fluoroethylflumazenil]
- Clearance following administration in vivo ([2]; in vivo): too rapid
